Read-outs that look alike come from different tables or passages of the source.
What was measured:
dopamine D1 receptor = target: T1, dopamine D1 receptor (Sus scrofa, UniProt P50130); assay: radioligand binding assay, dopamine D1 receptor, [3H]SCH 23390; conditions: porcine striatum membranes, mean of two to five experiments in triplicate, read-out: Ki D1
T1 construct: native membrane preparations from porcine striatum; from tissue; host or cells: porcine striatum
Text: (§1) Biological activity of the compounds has been determined in radioligand binding assays. These experiments have been done according to methods which are described in literature (Hübner, H. et al., J. Med. Chem. (2000), 43, 7562). For the determination of binding affinity to the receptors of the dopamine D2 family membranes were established carrying the human D2long, D2short, D3 or D4.4 receptor subtype stably expressed in Chinese hamster ovary cell lines. In principle, the binding experiments started when incubating an appropriate amount of membrane with the radioligand [^3H]spiperone and the particular test compounds used in a wide range of different concentrations from subnanomolar up to micromolar ones. In the same way, binding affinities of the test compounds to the dopamine D1 receptor were determined when using native membrane preparations from porcine striatum and the D1 selective radioligand [^3H]SCH 23390.
(§2) The results of the binding experiments are summarized in Table 1 as mean values of two to five individual experiments each done in triplicate and expressed as Ki values in nM.

human D2long, D2short = human D2long, D2short (Homo sapiens, UniProt P14416); assay: biochemical; assay type: binding; conditions: CHO cell membranes, [3H]spiperone; mean of two to five experiments in triplicate; read-out: Ki D2
Method: as §1, with “These” for “Biological activity of the compounds has been determined in radioligand binding assays. These”, “ones.” for “ones. In the same way, binding affinities of the test compounds to the dopamine D1 receptor were determined when using native membrane preparations from porcine striatum and the D1 selective radioligand [^3H]SCH 23390.”

human D3 = human D3 (Homo sapiens, UniProt P35462); assay: radioligand binding assay, dopamine D3 receptor, [3H]spiperone; conditions: CHO cell membranes, mean of two to five experiments in triplicate, read-out: Ki D3
Method: as §1, with “These” for “Biological activity of the compounds has been determined in radioligand binding assays. These”, “ones.” for “ones. In the same way, binding affinities of the test compounds to the dopamine D1 receptor were determined when using native membrane preparations from porcine striatum and the D1 selective radioligand [^3H]SCH 23390.”

human D4.4 = target: T2, human D4.4 (Homo sapiens, UniProt P21917); assay: radioligand binding assay, dopamine D4.4 receptor, [3H]spiperone; conditions: CHO cell membranes, mean of two to five experiments in triplicate, read-out: Ki D4.4
T2 sequence (P21917 1-419): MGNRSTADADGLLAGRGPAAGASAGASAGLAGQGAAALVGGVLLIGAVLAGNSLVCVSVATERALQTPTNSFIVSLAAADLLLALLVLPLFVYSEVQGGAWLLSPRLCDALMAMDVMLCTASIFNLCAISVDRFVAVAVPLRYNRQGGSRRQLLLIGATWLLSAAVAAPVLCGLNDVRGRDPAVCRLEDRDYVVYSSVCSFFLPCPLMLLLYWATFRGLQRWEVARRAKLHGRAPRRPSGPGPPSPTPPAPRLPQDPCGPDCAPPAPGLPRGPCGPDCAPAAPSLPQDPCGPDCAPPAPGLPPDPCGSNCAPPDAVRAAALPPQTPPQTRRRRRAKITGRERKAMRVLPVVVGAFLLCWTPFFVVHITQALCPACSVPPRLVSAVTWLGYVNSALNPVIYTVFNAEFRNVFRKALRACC
Text: as §1, §2

5-HT1A = target: T3, 5-HT1A (Sus scrofa, UniProt A0A4X1UTF5); assay: radioligand binding assay, serotonin 5-HT1A receptor, [3H]WAY 100635; conditions: porcine cortex membranes, mean of two to five experiments in triplicate, read-out: Ki 5-HT1a
T3 construct: membrane preparations from porcine cortex; from tissue; host or cells: porcine cortex
T3 sequence (A0A4X1UTF5 1-422): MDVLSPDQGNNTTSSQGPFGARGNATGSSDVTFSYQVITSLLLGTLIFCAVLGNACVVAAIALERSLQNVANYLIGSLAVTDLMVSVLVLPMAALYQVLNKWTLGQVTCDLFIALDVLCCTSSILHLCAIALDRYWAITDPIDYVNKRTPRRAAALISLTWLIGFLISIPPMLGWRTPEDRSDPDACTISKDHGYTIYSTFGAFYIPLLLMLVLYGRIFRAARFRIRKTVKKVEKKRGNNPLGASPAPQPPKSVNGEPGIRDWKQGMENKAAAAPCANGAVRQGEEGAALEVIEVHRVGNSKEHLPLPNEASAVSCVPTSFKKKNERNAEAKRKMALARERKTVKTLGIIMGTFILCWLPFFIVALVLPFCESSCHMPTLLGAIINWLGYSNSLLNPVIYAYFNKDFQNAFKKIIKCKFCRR
Method: (§3) The investigation of receptor binding to the serotonin and adrenergic receptors was done according to a published procedure (Heindl, C. et al., Tetrahedron: Asymmetry (2003), 14, 3141-3152). In detail, for the determination of the binding properties to serotonin receptors membrane preparations from porcine cortex was incubated with the 5-HT1A selective radioligand [^3H]WAY 100635 or with the 5-HT2 selective compound [^3H]ketanserin. The measurement of alpha-1 and alpha-2 receptor binding was achieved when utilizing porcine cortical membranes and the selective radioligands [^3H]prazosin (for alpha-1) and [^3H]RX821002 in an assay similar to that described above.
as §2

5-HT2 = target: T4, 5-HT2 (Sus scrofa, UniProt P50129); assay: radioligand binding assay, serotonin 5-HT2 receptor, [3H]ketanserin; set-up: species or system porcine
T4 construct: membrane preparations from porcine cortex; from tissue; host or cells: porcine cortex

alpha-1 = assay: radioligand binding assay, adrenergic alpha-1 receptor, [3H]prazosin; conditions: porcine cortical membranes, mean of two to five experiments in triplicate, read-out: Ki alpha1
Method: as §3, §2

human 5-HT1A receptor = target: T5, human 5-HT1A receptor (Homo sapiens, UniProt P08908); assay: [35S]GTPγS assay of functional activity at the 5-HT1A receptor; assay type: biochemical; conditions: membranes from CHO cells expressing human 5-HT1A receptor; for 5-HT1A stimulated [35S]GTPγS binding intrinsic effect: % activity of serotonin; for EC50: read-out: 5-HT1A stimulated [35S]GTPγS binding EC50 value
T5 construct: expressed in transfected cells
T5 sequence (P08908 1-422): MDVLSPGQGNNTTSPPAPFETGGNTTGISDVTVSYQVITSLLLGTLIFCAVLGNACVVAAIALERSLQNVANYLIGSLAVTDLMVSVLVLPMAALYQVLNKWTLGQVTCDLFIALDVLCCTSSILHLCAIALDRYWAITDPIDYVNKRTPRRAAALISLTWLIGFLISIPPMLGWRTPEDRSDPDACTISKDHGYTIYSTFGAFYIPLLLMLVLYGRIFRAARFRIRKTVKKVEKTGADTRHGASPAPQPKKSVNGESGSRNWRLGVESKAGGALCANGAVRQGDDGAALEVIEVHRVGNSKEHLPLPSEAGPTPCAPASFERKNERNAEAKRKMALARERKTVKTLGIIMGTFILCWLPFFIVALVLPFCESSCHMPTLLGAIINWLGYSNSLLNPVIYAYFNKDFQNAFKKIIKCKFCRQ
Method: In detail, membranes from CHO (Chinese hamster ovary) cells stably expressing the human 5-HT1A receptor were stimulated with an increasing concentration of test compounds used in a range of subnanomolar to micromolar concentrations in the presence of radioactive [^35S]GTPγ. The amount of bound radioactivity which indicates the amount of stimulation of the receptor was determined after transferring the membranes to filters by scintillation counting. Dose response correlations could be derived and the particular stimulation of the receptor was compared to the maximum effect of the reference compound and physiological ligand serotonin.
Table 2: Intrinsic activities of the compounds of this invention at the serotonin 5-HT1A receptor determined in a [35S]GTPγS assay

[1] = cited from Maurel et al, reference (14); cited from earlier work
[2] = porcine cortex membranes, [3H]ketanserin, mean of two to five experiments in triplicate, read-out: Ki 5-HT2

T4 sequence (P50129 whole entry): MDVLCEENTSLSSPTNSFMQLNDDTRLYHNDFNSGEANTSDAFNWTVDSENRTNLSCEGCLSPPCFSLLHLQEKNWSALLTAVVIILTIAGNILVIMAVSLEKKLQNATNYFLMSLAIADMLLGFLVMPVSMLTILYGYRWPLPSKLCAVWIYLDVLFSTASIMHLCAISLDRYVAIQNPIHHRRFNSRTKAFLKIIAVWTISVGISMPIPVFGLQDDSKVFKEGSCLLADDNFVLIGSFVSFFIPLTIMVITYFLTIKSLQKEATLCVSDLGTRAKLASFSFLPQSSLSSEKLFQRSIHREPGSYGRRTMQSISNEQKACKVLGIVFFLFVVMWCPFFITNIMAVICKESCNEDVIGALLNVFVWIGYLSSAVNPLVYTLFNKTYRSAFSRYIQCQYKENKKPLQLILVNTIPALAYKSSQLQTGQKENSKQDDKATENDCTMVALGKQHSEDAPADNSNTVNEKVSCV
Sequence of human D3 (P35462 whole entry): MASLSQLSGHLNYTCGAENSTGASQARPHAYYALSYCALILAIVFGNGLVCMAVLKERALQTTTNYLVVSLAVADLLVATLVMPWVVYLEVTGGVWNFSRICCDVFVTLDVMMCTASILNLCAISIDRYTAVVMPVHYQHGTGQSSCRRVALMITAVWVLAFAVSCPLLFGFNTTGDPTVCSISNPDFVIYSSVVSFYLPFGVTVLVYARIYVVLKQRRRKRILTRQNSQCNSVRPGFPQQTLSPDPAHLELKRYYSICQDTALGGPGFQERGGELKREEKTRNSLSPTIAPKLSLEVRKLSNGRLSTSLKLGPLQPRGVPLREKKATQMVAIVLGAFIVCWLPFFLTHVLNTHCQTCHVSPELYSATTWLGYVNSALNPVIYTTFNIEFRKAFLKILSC
Sequence of human D2long, D2short (P14416 whole entry): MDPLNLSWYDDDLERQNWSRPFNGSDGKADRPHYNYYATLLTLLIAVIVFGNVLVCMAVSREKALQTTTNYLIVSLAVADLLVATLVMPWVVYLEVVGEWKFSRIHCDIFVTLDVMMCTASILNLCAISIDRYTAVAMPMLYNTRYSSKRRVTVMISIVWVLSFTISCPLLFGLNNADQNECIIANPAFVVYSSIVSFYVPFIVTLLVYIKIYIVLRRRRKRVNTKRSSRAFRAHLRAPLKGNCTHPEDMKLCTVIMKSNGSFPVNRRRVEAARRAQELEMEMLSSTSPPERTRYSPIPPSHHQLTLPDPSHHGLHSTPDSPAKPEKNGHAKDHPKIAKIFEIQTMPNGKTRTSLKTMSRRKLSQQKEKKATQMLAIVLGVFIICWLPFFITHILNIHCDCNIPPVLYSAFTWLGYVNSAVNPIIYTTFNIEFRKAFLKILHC
T1 sequence (P50130 whole entry): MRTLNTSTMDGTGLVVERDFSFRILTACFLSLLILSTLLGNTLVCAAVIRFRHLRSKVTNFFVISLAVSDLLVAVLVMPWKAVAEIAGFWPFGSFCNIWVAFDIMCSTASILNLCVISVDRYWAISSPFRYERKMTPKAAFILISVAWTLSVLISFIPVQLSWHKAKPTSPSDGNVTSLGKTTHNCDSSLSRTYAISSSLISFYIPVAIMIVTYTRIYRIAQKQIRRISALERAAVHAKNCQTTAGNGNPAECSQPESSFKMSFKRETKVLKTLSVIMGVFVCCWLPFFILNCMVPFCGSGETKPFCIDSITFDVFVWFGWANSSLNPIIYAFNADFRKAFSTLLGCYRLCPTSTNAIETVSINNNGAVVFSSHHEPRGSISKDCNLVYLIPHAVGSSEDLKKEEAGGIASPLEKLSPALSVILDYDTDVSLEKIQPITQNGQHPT

SMILES	5-HT1A stimulated [35S]GTPγS binding intrinsic effect (human 5-HT1A receptor)	Ki (5-HT2) [µM]	Ki (dopamine D1 receptor) [µM]	Ki (human D2long, D2short) [µM]	Ki (human D3) [µM]	Ki (human D4.4) [µM]	Ki (5-HT1A) [µM]	Ki (5-HT2; [2]) [µM]	Ki (alpha-1) [µM]	EC50 (human 5-HT1A receptor) [µM]	half-life elimination from plasma [1] [h]
Cc1ccc(CNCC2(F)CCN(C(=O)c3cccs3)CC2)nc1 [Example E1]	D (D=full agonist (>75%))	–	> 5	> 5	> 5	> 5	< 0.05	> 5	> 5	< 0.05	–
Cc1ccc(CNCC2(F)CCN(C(=O)c3sccc3Cl)CC2)nc1 [Example E3, 3-Chlorothien-2-yl-[4-fluoro-4-[[(5-methylpyridin-2-ylmethyl)amino]methyl]-piperidin-1-yl]-methanone]	D (D=full agonist (>75%))	–	> 5	> 5	> 5	0.501 to 5	< 0.05	> 5	0.501 to 5	< 0.05	–
Cc1ccc(CNCC2(F)CCN(C(=O)c3ccc(Cl)s3)CC2)nc1 [Example E4, 5-Chlorothien-2-yl-[4-fluoro-4-[[(5-methylpyridin-2-ylmethyl)amino]methyl]-piperidin-1-yl]-methanone]	D (D=full agonist (>75%))	–	> 5	> 5	> 5	0.501 to 5	< 0.05	> 5	0.501 to 5	< 0.05	–
Cc1ccc(CNCC2(F)CCN(C(=O)c3sccc3Br)CC2)nc1 [Example E5, 3-Bromothien-2-yl-[4-fluoro-4-[[(5-mothylpyridin-2-ylmethyl)amino]mothyl]-piperidin-1-yl]-methanone]	D (D=full agonist (>75%))	> 5	> 5	> 5	> 5	0.501 to 5	< 0.05	–	0.501 to 5	< 0.05	–
Cc1ccc(CNCC2(F)CCN(C(=O)c3cc(Br)cs3)CC2)nc1 [Example E6, 4-Bromothien-2-yl-[4-fluoro-4-[[(5-methylpyridin-2-ylmethyl)amino]methyl]-piperidin-1-yl]-methanone]	D (D=full agonist (>75%))	–	> 5	> 5	> 5	0.501 to 5	< 0.05	> 5	0.501 to 5	< 0.05	–
Cc1ccc(CNCC2(F)CCN(C(=O)c3sccc3C)CC2)nc1 [Example E9, [4-Fluoro-4-[[(5-methylpyridin-2-ylmethyl)amino]methyl]piperidin-1-yl]-3-methylthien-2-yl-methanone]	D (D=full agonist (>75%))	–	> 5	> 5	> 5	> 5	< 0.05	> 5	> 5	< 0.05	–
Cc1ccc(CNCC2(F)CCN(C(=O)c3ccsc3)CC2)nc1 [Example E18, [4-Fluoro-4-[[(5-methylpyridin-2-ylmethyl)amino]methyl]piperidin-1-yl]-thien-3-yl-methanone]	D (D=full agonist (>75%))	–	> 5	> 5	> 5	> 5	< 0.05	> 5	> 5	< 0.05	–

Further lines, with some results ahead:

5-HT1A stimulated [35S]GTPγS binding intrinsic effect (human 5-HT1A receptor)	Ki (5-HT2) [µM]	SMILES	Ki (dopamine D1 receptor) [µM]	Ki (human D2long, D2short) [µM]	Ki (human D3) [µM]	Ki (human D4.4) [µM]	Ki (5-HT1A) [µM]	Ki (5-HT2; [2]) [µM]	Ki (alpha-1) [µM]	EC50 (human 5-HT1A receptor) [µM]	half-life elimination from plasma [1] [h]
D (D=full agonist (>75%))	> 5	Cc1ccc(CNCC2(F)CCN(C(=O)c3ccc(Br)s3)CC2)nc1 [Example E7, 5-Bromothion-2-yl-[4-fluoro-4-[[(5-mothylpyridin-2-ylmethyl)amino]methyl]-piperidin-1-yl]-methanone]	> 5	> 5	> 5	0.501 to 5	< 0.05	–	0.501 to 5	< 0.05	–
D (D=full agonist (>75%))	> 5	Cc1ccc(CNCC2(F)CCN(C(=O)c3cc(C)cs3)CC2)nc1 [Example E10, [4-Fluoro-4-[[(5-methylpyridin-2-ylmethyl)amino]methyl]piparidin-1-yl]-4-methylthien-2-yl-mothanone]	> 5	> 5	> 5	0.501 to 5	< 0.05	–	0.501 to 5	< 0.05	–
D (D=full agonist (>75%))	> 5	Cc1ccc(CNCC2(F)CCN(C(=O)c3ccc(C)s3)CC2)nc1 [Example E11, [4-Fluoro-4-[[(5-methylpyridin-2-ylmethyl)amino]methyl]piperidin-1-yl]-5-mothylthiophon-2-yl-mothanone]	> 5	> 5	> 5	0.501 to 5	< 0.05	–	> 5	< 0.05	–
D (D=full agonist (>75%))	–	Cc1ccc(CNCC2(F)CCN(C(=O)c3ccc(F)c(Cl)c3)CC2)nc1 [Example F13640, reference compound]	–	–	–	–	–	–	–	–	35

— EP2058306A1, “Heteroaryl-substituted 2-pyridinyl-methylamine derivatives” (SCHWARZ PHARMA AG, priority 2007, dated 2009)
